Data published in ChEMBL document CHEMBL1131247, “Substituted naphthofurans as hallucinogenic phenethylamine-ergoline hybrid molecules with unexpected muscarinic antagonist activity” (J Med Chem, 1998).
The source made the active and inactive calls. The rule behind the calls is not given here.

Key:
[1] = biological target: T1, 5-hydroxytryptamine receptor 2B (Homo sapiens, UniProt P41595); test: Binding ability of compound at cloned human 5-hydroxytryptamine 2B receptor using [3H]5-HT 2B as radioligand
Rattus norvegicus [2] = test: Percentage of animals failing to emit 50 presses on either lever within the 15-min test period in rat at 1.46 mg/kg (4 uM/kg); format: functional
Rattus norvegicus [3] = species: Rattus norvegicus; test: (§1) Effective dose for LSD-like behavioral effect in rats; Not significant; format: functional, organism-based
Rattus norvegicus [4] = species: Rattus norvegicus; test: Percentage of animals emitting 50 presses on the LSD appropriate lever during the test period; format: functional
[5] = biological target: T2, 5-hydroxytryptamine receptor 2A (Homo sapiens, UniProt P28223); test: Binding ability of compound at cloned human 5-hydroxytryptamine 2A receptor using [125 I]DOI as radioligand
Rattus norvegicus [6] = test: Percentage of animals failing to emit 50 presses on either lever within the 15-min test period in rat at 2.92 mg/kg (8 uM/kg); format: functional
Rattus norvegicus [7] = test: Percentage of animals failing to emit 50 presses on either lever within the 15-min test period in rat at 5.84 mg/kg (16 uM/kg); format: functional
Rattus norvegicus [8] = species: Rattus norvegicus; test: as §1; format: functional, organism-based; remark: listed apart in the source
Rattus norvegicus [9] = test: Percentage of animals failing to emit 50 presses on either lever within the 15-min test period in rat at 0.78 mg/kg (2 umol/kg); format: functional
[10] = biological target: 5-hydroxytryptamine receptor 2A (Rattus norvegicus, UniProt P14842); test: Affinity at [3H]ketanserin-labeled 5-hydroxytryptamine 2A receptor in rat brain homogenate was determined; format: tissue-based
Rattus norvegicus [11] = test: Percentage of animals failing to emit 50 presses on either lever within the 15-min test period in rat at 0.365 mg/kg (1 uM/kg); format: functional
[12] = biological target: T3, 5-hydroxytryptamine receptor 2C (Homo sapiens, UniProt P28335); test: Binding ability of compound at cloned human 5-hydroxytryptamine 2C receptor using [125 I]DOI as radioligand
T3 sequence (P28335 whole entry): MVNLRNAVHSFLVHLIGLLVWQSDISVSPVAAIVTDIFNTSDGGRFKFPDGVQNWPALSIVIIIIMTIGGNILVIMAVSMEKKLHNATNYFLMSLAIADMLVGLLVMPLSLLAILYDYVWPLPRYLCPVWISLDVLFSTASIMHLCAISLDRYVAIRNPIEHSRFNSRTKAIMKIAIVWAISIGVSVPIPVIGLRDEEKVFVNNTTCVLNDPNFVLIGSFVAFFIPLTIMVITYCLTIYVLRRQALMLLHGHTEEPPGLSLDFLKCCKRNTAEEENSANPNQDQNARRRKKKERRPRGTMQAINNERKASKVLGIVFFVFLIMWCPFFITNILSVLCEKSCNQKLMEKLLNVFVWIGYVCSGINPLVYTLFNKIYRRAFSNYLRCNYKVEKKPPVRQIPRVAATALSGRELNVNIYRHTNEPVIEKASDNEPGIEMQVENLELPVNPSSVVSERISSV

Rattus norvegicus [13] = species: Rattus norvegicus; test: Effective dose for LSD-like behavioral effect in rats; format: functional
[14] = biological target: T4, 5-hydroxytryptamine receptor 1A (Rattus norvegicus, UniProt P19327); test: Affinity at [3H]8-OH-DPAT-labeled 5-hydroxytryptamine 1A receptor in rat brain homogenate was determined; format: tissue-based
T4 sequence (P19327 whole entry): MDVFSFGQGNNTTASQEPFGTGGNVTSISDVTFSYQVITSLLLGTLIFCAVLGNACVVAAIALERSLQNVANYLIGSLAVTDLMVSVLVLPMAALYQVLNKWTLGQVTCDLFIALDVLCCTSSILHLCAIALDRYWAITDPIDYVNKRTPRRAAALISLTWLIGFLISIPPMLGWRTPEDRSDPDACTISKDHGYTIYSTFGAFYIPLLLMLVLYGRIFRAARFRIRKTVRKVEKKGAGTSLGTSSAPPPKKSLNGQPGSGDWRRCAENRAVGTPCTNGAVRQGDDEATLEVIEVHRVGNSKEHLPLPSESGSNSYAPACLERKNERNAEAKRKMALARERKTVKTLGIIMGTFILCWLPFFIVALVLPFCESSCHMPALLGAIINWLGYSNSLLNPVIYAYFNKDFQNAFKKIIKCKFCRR

[15] = biological target: T5, Muscarinic acetylcholine receptor M1 (Mus musculus) (UniProt P12657)
T5 sequence (whole entry): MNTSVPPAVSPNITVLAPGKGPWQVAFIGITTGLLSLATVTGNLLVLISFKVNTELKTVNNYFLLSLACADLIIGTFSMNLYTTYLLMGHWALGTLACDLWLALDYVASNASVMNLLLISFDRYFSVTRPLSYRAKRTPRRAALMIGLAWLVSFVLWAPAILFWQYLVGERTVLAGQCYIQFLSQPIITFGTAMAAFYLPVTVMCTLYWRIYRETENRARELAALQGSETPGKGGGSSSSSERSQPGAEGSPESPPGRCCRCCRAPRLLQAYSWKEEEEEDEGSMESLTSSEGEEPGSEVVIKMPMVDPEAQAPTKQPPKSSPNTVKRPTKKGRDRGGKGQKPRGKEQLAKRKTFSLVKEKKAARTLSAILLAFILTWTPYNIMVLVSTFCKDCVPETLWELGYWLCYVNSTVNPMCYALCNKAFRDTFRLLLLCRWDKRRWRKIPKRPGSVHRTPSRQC

[16] = biological target: T6, Muscarinic acetylcholine receptor M2 (Rattus norvegicus) (UniProt P10980)
T6 sequence (whole entry): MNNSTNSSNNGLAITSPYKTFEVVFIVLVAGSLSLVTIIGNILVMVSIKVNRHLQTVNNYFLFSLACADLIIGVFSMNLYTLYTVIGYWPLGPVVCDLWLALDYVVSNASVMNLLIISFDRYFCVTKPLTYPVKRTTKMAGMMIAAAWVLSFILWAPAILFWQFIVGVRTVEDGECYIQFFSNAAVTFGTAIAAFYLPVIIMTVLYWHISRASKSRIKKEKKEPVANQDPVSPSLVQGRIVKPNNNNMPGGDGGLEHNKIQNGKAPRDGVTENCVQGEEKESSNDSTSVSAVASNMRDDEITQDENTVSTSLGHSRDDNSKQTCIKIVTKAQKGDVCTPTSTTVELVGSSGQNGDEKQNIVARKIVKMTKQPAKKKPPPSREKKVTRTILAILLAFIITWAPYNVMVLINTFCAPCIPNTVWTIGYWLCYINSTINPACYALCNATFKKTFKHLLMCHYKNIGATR

[17] = biological target: Muscarinic acetylcholine receptor M3 (Rattus norvegicus) (UniProt P08483)
[18] = biological target: T7, Muscarinic acetylcholine receptor M4 (Rattus norvegicus) (UniProt P08485)
T7 sequence (whole entry): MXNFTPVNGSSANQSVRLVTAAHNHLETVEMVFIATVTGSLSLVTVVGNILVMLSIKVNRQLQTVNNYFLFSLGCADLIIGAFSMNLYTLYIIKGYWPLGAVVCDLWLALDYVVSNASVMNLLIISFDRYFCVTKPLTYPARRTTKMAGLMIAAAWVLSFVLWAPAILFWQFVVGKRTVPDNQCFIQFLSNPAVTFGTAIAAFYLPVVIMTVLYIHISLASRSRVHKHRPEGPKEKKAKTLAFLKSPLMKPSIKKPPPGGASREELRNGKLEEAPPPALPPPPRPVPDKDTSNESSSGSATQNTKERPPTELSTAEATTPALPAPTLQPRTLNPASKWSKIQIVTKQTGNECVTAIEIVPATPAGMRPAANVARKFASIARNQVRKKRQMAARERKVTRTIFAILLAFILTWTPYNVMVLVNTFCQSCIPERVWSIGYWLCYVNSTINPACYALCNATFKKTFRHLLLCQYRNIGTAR

[19] = biological target: T8, Muscarinic acetylcholine receptor M5 (Rattus norvegicus) (UniProt P08911)
T8 sequence (whole entry): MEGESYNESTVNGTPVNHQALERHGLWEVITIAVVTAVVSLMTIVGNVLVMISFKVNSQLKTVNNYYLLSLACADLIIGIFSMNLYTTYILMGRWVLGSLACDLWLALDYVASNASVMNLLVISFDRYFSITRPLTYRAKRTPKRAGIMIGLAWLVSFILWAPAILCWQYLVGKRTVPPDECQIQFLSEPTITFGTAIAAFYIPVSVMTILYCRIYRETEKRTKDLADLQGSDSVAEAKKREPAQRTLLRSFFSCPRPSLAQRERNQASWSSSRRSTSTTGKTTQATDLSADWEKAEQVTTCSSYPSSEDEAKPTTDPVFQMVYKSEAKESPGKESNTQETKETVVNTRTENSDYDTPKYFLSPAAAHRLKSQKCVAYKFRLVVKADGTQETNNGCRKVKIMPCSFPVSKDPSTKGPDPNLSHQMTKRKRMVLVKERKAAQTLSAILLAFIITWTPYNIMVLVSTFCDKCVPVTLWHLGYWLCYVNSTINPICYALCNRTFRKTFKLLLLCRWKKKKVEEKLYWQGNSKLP

[20] = biological target: T2, 5-hydroxytryptamine receptor 2A; test: Binding ability of compound at cloned human 5-hydroxytryptamine 2A receptor using [3H]ketanserin as radioligand
Rattus norvegicus [21] = test: Percentage of animals failing to emit 50 presses on either lever within the 15-min test period in rat at 5.84 mg/kg (16 umol/kg); format: functional
[22] = biological target: T3, 5-hydroxytryptamine receptor 2C; test: Binding ability of compound at cloned human 5-hydroxytryptamine 2C receptor using [3H]- mesulergine as radioligand
Rattus norvegicus [23] = test: Percentage of animals failing to emit 50 presses on either lever within the 15-min test period in rat at 1.46 mg/kg (4 umol/kg); format: functional
Rattus norvegicus [24] = test: Percentage of animals emitting 50 presses on the LSD appropriate lever during the test period in rat at 5.84 mg/kg (16 umol/kg); format: functional
[25] = biological target: T1, 5-hydroxytryptamine receptor 2B; test: Binding ability of compound at cloned human 5-hydroxytryptamine 2B receptor using [3H]- rauwolscine as radioligand
Rattus norvegicus [26] = test: Percentage of animals failing to emit 50 presses on either lever within the 15-min test period in rat at 2.92 mg/kg (8 umol/kg); format: functional
Rattus norvegicus [27] = test: Percentage of animals emitting 50 presses on the LSD appropriate lever during the test period in rat at 0.78 mg/kg(2 uM/kg); format: functional
Rattus norvegicus [28] = test: Percentage of animals emitting 50 presses on the LSD appropriate lever during the test period in rat at 1.46 mg/kg (4 umol/kg); format: functional
Rattus norvegicus [29] = test: Percentage of animals failing to emit 50 presses on either lever within the 15-min test period in rat at 0.78 mg/kg(2 uM/kg); format: functional
Rattus norvegicus [30] = test: Percentage of animal emitting 50 presses on the LSD appropriate lever during the test period in rat at 0.365 mg/kg (1 uM/kg); format: functional

5-hydroxytryptamine receptor 2A (Rattus norvegicus, UniProt P14842), sequence (P14842 whole entry): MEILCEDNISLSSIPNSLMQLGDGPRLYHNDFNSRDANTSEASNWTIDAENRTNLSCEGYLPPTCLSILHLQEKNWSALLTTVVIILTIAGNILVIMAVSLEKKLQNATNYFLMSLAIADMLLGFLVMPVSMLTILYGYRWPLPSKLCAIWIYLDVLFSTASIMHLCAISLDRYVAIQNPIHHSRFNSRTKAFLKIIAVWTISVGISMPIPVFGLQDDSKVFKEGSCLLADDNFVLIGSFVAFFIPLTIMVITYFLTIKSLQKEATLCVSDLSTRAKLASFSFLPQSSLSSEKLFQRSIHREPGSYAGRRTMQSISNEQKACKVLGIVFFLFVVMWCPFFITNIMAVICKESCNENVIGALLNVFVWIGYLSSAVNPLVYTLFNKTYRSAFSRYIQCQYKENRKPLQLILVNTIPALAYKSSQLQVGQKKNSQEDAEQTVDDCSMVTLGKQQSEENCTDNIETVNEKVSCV
T2 sequence (P28223 whole entry): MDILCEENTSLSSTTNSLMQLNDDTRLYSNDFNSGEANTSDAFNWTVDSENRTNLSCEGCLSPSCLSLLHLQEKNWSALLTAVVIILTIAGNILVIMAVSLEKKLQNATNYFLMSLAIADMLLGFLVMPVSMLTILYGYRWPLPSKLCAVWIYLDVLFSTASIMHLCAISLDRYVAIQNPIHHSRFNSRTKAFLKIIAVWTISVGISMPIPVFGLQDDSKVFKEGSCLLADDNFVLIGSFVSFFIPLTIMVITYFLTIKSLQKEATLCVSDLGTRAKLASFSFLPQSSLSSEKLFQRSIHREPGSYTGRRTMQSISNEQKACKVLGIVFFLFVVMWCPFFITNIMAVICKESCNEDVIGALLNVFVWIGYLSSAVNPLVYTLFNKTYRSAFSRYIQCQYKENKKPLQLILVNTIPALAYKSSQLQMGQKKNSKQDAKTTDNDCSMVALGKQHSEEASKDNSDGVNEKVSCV
T1 sequence (P41595 whole entry): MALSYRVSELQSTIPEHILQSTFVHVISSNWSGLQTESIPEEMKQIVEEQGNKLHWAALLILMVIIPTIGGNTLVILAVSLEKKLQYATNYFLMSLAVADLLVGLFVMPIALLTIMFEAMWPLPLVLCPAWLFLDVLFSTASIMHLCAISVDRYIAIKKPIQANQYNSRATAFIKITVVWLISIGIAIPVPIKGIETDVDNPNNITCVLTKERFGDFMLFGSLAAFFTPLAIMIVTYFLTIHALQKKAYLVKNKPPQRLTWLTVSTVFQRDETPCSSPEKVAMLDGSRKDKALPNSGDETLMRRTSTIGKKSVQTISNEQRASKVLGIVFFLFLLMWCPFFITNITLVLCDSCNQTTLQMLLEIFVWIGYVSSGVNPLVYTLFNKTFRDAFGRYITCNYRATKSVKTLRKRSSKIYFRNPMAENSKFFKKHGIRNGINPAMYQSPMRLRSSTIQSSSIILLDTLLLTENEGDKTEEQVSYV
Muscarinic acetylcholine receptor M3 (Rattus norvegicus), sequence (P08483 whole entry, looked up): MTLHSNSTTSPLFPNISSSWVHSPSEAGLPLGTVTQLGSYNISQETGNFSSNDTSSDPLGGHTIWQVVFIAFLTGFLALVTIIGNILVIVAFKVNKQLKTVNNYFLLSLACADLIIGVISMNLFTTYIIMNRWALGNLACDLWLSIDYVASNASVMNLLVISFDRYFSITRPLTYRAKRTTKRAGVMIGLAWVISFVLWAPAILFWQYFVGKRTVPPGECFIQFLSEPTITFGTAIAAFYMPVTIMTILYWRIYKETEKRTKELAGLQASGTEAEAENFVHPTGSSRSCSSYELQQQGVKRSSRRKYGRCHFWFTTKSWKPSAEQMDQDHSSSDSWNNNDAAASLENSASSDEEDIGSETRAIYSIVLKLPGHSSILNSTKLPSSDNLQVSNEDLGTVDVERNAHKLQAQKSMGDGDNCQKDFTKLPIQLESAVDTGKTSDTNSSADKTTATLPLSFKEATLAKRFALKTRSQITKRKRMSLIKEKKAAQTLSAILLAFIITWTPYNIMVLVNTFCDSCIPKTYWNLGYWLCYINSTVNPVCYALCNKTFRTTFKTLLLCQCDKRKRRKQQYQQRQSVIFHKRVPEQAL

COc1cc(Br)c2c3c1C[C@H](N)C[C@H]3CO2
Ki [1]: 11200 nM | D (Rattus norvegicus [2]): 0% | ED50 (Rattus norvegicus [3]): inactive | SDL (Rattus norvegicus [4]): 27% | Ki [5]: 8500 nM | D (Rattus norvegicus [6]): 0% | D (Rattus norvegicus [7]): 11% | ED50 (Rattus norvegicus [8]): inactive | D (Rattus norvegicus [9]): 0% | Ki [10]: 3880 nM | D (Rattus norvegicus [11]): 0% | Ki [12]: 4190 nM

COc1cc(C[C@@H](C)N)c(OC)cc1Br
ED50 (Rattus norvegicus [13]): 1.12 mg/kg | Ki [14]: 6100 nM

COc1ccc2c3c1C[C@H](N)C[C@@H]3CO2
K 0.5 [15]: 149 nM | K 0.5 [16]: 33400 nM | K 0.5 [17]: 129 nM | K 0.5 [18]: 240 nM | K 0.5 [19]: 236 nM

CCCN(CCC)[C@H]1Cc2c(OC)ccc3c2[C@@H](CO3)C1
Ki [14]: 144000 nM | Ki [10]: 644 nM

CN1[C@@H]2CC[C@H]1C[C@@H](OC(=O)C(CO)c1ccccc1)C2 (some centres not stated)
K 0.5 [15]: 0.6 nM | K 0.5 [16]: 1.8 nM | K 0.5 [17]: 0.6 nM | K 0.5 [18]: 0.5 nM | K 0.5 [19]: 0.7 nM

COc1ccc2c3c1C[C@H](N(C)C)C[C@@H]3CO2
K 0.5 [15]: 846 nM | K 0.5 [16]: 953 nM | K 0.5 [17]: 654 nM | Ki [14]: 38000 nM | Ki [10]: 967 nM | K 0.5 [18]: 913 nM | K 0.5 [19]: 1100 nM

COc1cc(Br)c2c3c1C[C@H](N)C[C@@H]3CO2
Ki [20]: 240 nM | Ki [1]: 263 nM | D (Rattus norvegicus [21]): 15% | ED50 (Rattus norvegicus [3]): inactive | Ki [22]: 89.6 nM | SDL (Rattus norvegicus [4]): 33% | D (Rattus norvegicus [23]): 0% | Ki [5]: 13 nM | SDL (Rattus norvegicus [24]): 44% | ED50 (Rattus norvegicus [8]): inactive | Ki [25]: 255 nM | D (Rattus norvegicus [26]): 0% | SDL (Rattus norvegicus [27]): 0% | K 0.5 [15]: 20 nM | K 0.5 [16]: 41 nM | K 0.5 [17]: 12 nM | SDL (Rattus norvegicus [28]): 10% | D (Rattus norvegicus [29]): 0% | Ki [10]: 1050 nM | D (Rattus norvegicus [11]): 0% | Ki [12]: 5.96 nM | K 0.5 [18]: 30 nM | K 0.5 [19]: 33 nM | SDL (Rattus norvegicus [30]): 0%
